Reference: PubChem BioAssay AID1963870 (Molecular Pharmacology Branch, DTP, NCI, 2024)

Tested on: 292921-168-R-J2-PDC KRAS tumor spheroid viability
Experiment: Anticancer human tumor 292921-168-R-J2-PDC patient-derived pancreatic carcinoma cell line growth inhibition [KRAS2]
Conditions: spheroids with HUVEC and MSC; for IC50: curve of first compound; for viability, T/C: stronger effect = lower value
Summary of the method: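 Combination screen of spheroid viability in tumor-cell co-cultures with endothelial (HUVEC) and mesenchymal stem cell stroma. Each agent was tested in half-log dilutions, topping at clinical Cmax or at 10 microM without a known Cmax.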

[1] = second compound 0.1 µM, first compound 0.0316 µM
[2] = second compound 0.316 µM, first compound 0.0316 µM
[3] = second compound 1 µM, first compound 0.0316 µM
[4] = second compound 3.16 µM, first compound 0.0316 µM
[5] = second compound 10 µM, first compound 0.0316 µM
[6] = second compound 0.1 µM, first compound 0.1 µM
[7] = second compound 0.1 µM, first compound 0.316 µM
[8] = second compound 0.1 µM, first compound 1 µM
[9] = second compound 0.1 µM, first compound 3.16 µM
[10] = second compound 0.1 µM, first compound 10 µM
[11] = second compound 0.316 µM, first compound 0.1 µM
[12] = second compound 0.316 µM, first compound 0.316 µM
[13] = second compound 0.316 µM, first compound 1 µM
[14] = second compound 0.316 µM, first compound 3.16 µM
[15] = second compound 0.316 µM, first compound 10 µM
[16] = second compound 1 µM, first compound 0.1 µM
[17] = second compound 1 µM, first compound 0.316 µM
[18] = second compound 1 µM, first compound 1 µM
[19] = second compound 1 µM, first compound 3.16 µM
[20] = second compound 1 µM, first compound 10 µM
[21] = second compound 3.16 µM, first compound 0.1 µM
[22] = second compound 3.16 µM, first compound 0.316 µM
[23] = second compound 3.16 µM, first compound 1 µM
[24] = second compound 3.16 µM, first compound 3.16 µM
[25] = second compound 3.16 µM, first compound 10 µM
[26] = second compound 10 µM, first compound 0.1 µM
[27] = second compound 10 µM, first compound 0.316 µM
[28] = second compound 10 µM, first compound 1 µM
[29] = second compound 10 µM, first compound 3.16 µM
[30] = second compound 10 µM, first compound 10 µM
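Further: drug exposure lasted seven days after spheroids formed for three days.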
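Wherever viability, T/C is given: percent of DMSO vehicle control viability which is 100%.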

CC(=O)Nc1cccc(-n2c(=O)n(C3CC3)c(=O)c3c(Nc4ccc(I)cc4F)n(C)c(=O)c(C)c32)c1 + COc1cc2nc(C)nc(NC(C)c3cc(N)cc(C(F)(F)F)c3)c2cc1OC1CCOC1
IC50 (second compound 0.1 µM): 0.23 nM | IC50 (second compound 0.316 µM): 0.165 nM | IC50 (second compound 1 µM): 0.119 nM | IC50 (second compound 3.16 µM): 0.105 nM | IC50 (second compound 10 µM): < 0.1 nM | viability, T/C (second compound 0.1 µM, first compound 0.0001 µM): 72.3% | viability, T/C (second compound 0.1 µM, first compound 0.000316 µM): 40.4% | viability, T/C (second compound 0.1 µM, first compound 0.001 µM): 25.4% | viability, T/C (second compound 0.1 µM, first compound 0.00316 µM): 16.1% | viability, T/C (second compound 0.1 µM, first compound 0.01 µM): 11.3% | viability, T/C [1]: 8.07% | viability, T/C (second compound 0.316 µM, first compound 0.0001 µM): 57.4% | viability, T/C (second compound 0.316 µM, first compound 0.000316 µM): 40.9% | viability, T/C (second compound 0.316 µM, first compound 0.001 µM): 22% | viability, T/C (second compound 0.316 µM, first compound 0.00316 µM): 15.7% | viability, T/C (second compound 0.316 µM, first compound 0.01 µM): 12% | viability, T/C [2]: 8.27% | viability, T/C (second compound 1 µM, first compound 0.0001 µM): 53.6% | viability, T/C (second compound 1 µM, first compound 0.000316 µM): 31.5% | viability, T/C (second compound 1 µM, first compound 0.001 µM): 20.9% | viability, T/C (second compound 1 µM, first compound 0.00316 µM): 13.8% | viability, T/C (second compound 1 µM, first compound 0.01 µM): 11.5% | viability, T/C [3]: 8.01% | viability, T/C (second compound 3.16 µM, first compound 0.0001 µM): 51.5% | viability, T/C (second compound 3.16 µM, first compound 0.000316 µM): 29.2% | viability, T/C (second compound 3.16 µM, first compound 0.001 µM): 19.1% | viability, T/C (second compound 3.16 µM, first compound 0.00316 µM): 12.4% | viability, T/C (second compound 3.16 µM, first compound 0.01 µM): 10.3% | viability, T/C [4]: 8.26% | viability, T/C (second compound 10 µM, first compound 0.0001 µM): 18.4% | viability, T/C (second compound 10 µM, first compound 0.000316 µM): 14.6% | viability, T/C (second compound 10 µM, first compound 0.001 µM): 15% | viability, T/C (second compound 10 µM, first compound 0.00316 µM): 11.9% | viability, T/C (second compound 10 µM, first compound 0.01 µM): 8.42% | viability, T/C [5]: 8.34%

CC1OCC2(CCN(c3cnc(Sc4ccnc(N)c4Cl)c(N)n3)CC2)C1N (stereo not given) + COc1cc2nc(C)nc(NC(C)c3cc(N)cc(C(F)(F)F)c3)c2cc1OC1CCOC1
IC50 (second compound 0.1 µM): 242 nM | IC50 (second compound 0.316 µM): 127 nM | IC50 (second compound 1 µM): 102 nM | IC50 (second compound 3.16 µM): 53 nM | IC50 (second compound 10 µM): < 31.6 nM | viability, T/C [1]: 70.2% | viability, T/C [6]: 60.1% | viability, T/C [7]: 46.6% | viability, T/C [8]: 36.8% | viability, T/C [9]: 30.2% | viability, T/C [10]: 26.9% | viability, T/C [2]: 69.2% | viability, T/C [11]: 53% | viability, T/C [12]: 39.9% | viability, T/C [13]: 33.1% | viability, T/C [14]: 29.2% | viability, T/C [15]: 26.1% | viability, T/C [3]: 62.4% | viability, T/C [16]: 51% | viability, T/C [17]: 36.1% | viability, T/C [18]: 31.1% | viability, T/C [19]: 26.3% | viability, T/C [20]: 24.3% | viability, T/C [4]: 56.1% | viability, T/C [21]: 42.4% | viability, T/C [22]: 33.5% | viability, T/C [23]: 27.5% | viability, T/C [24]: 23.8% | viability, T/C [25]: 21.7% | viability, T/C [5]: 23.1% | viability, T/C [26]: 20.2% | viability, T/C [27]: 17.4% | viability, T/C [28]: 14.2% | viability, T/C [29]: 15.4% | viability, T/C [30]: 13.2%

Cn1nccc1Nc1nccc(-c2cc3c(s2)C(C)(C)N(CCN2CCOCC2)C3=O)n1 + CC1OCC2(CCN(c3cnc(Sc4ccnc(N)c4Cl)c(N)n3)CC2)C1N
IC50 (second compound 0.1 µM): 39.3 nM | IC50 (second compound 0.316 µM): < 31.6 nM | IC50 (second compound 1 µM): < 31.6 nM | IC50 (second compound 3.16 µM): < 31.6 nM | IC50 (second compound 10 µM): < 31.6 nM | viability, T/C [1]: 54.5% | viability, T/C [6]: 30.8% | viability, T/C [7]: 19.1% | viability, T/C [8]: 11.7% | viability, T/C [9]: 10.5% | viability, T/C [10]: 11.7% | viability, T/C [2]: 37.1% | viability, T/C [11]: 25.7% | viability, T/C [12]: 12.6% | viability, T/C [13]: 10.9% | viability, T/C [14]: 8.88% | viability, T/C [15]: 9.52% | viability, T/C [3]: 33.9% | viability, T/C [16]: 21% | viability, T/C [17]: 13.1% | viability, T/C [18]: 9.76% | viability, T/C [19]: 8.56% | viability, T/C [20]: 9.6% | viability, T/C [4]: 26.3% | viability, T/C [21]: 19.7% | viability, T/C [22]: 12.6% | viability, T/C [23]: 8.37% | viability, T/C [24]: 8.01% | viability, T/C [25]: 8.06% | viability, T/C [5]: 24.1% | viability, T/C [26]: 17.6% | viability, T/C [27]: 11% | viability, T/C [28]: 8.12% | viability, T/C [29]: 6.93% | viability, T/C [30]: 7.35%
